Among the targets are LIM domain kinase 2 (Homo sapiens, UniProt P53671); Activated CDC42 kinase 1 (Homo sapiens, UniProt Q07912); Myosin-14 (Homo sapiens, UniProt Q7Z406).
Experiment [1] concerns the target Bone morphogenetic protein receptor type-1A (Homo sapiens, UniProt P36894).
For experiment [2], the target named is Cyclin-dependent kinase 13 (Homo sapiens, UniProt Q14004).
Experiment [3] deals with Chromodomain-helicase-DNA-binding protein 4 (Homo sapiens, UniProt Q14839).
In experiment [4] the target is Casein kinase I isoform alpha (Homo sapiens, UniProt P48729).
In experiment [5] the target is T1, Mitogen-activated protein kinase kinase kinase 2 (Homo sapiens, UniProt Q9Y2U5).
T1 sequence (Q9Y2U5 whole entry): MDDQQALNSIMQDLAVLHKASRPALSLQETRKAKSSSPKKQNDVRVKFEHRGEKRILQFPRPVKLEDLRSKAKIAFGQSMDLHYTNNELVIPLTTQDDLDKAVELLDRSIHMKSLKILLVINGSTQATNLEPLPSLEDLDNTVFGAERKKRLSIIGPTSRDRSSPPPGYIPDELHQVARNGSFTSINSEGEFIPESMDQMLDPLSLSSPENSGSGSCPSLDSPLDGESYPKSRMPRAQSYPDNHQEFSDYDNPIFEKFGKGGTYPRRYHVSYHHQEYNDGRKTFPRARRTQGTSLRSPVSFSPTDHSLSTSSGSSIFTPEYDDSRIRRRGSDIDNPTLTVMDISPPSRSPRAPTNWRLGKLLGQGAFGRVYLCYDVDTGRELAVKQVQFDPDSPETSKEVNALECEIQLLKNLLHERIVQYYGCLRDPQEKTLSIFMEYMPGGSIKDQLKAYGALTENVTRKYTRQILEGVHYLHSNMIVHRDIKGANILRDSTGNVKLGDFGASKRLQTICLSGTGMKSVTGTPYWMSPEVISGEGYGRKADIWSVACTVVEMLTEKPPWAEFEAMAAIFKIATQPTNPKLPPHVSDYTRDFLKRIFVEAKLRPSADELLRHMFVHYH

Experiment [6] concerns the target T2, Mitogen-activated protein kinase kinase kinase 5 (Homo sapiens, UniProt Q99683).
T2 sequence (Q99683 whole entry): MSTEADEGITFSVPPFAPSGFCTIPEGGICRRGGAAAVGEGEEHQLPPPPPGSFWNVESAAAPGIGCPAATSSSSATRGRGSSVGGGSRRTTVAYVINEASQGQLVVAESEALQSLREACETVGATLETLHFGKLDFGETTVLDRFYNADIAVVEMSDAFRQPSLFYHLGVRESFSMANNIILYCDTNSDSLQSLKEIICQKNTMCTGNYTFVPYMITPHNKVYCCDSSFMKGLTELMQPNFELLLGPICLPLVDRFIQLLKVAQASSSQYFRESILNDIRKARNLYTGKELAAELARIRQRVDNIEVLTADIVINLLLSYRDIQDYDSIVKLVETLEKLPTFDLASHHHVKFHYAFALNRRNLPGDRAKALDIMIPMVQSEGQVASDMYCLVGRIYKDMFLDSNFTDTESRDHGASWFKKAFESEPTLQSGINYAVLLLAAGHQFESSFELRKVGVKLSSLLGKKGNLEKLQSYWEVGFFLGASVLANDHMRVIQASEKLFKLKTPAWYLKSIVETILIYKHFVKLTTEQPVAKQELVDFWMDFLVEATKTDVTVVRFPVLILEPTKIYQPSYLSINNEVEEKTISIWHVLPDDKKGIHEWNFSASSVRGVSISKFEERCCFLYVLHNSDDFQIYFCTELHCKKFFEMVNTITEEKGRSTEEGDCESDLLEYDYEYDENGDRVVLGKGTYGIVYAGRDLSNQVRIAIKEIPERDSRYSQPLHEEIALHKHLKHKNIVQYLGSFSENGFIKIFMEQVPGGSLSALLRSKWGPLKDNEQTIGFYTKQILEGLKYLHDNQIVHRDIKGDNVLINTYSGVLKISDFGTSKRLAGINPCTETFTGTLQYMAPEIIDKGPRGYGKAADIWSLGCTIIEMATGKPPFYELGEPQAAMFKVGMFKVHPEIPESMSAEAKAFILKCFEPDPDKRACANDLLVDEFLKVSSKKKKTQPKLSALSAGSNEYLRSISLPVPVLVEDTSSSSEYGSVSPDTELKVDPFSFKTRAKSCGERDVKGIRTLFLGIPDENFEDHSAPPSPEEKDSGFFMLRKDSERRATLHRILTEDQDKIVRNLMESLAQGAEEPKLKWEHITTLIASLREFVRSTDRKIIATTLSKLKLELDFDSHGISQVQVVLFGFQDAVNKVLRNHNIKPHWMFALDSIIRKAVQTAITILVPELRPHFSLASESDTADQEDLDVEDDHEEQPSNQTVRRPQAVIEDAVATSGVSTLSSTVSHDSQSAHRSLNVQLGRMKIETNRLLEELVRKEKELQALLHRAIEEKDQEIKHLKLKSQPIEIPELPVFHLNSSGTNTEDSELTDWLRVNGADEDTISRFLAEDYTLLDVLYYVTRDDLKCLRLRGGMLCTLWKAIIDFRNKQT

Experiment [7] addresses Mitogen-activated protein kinase 11 (Homo sapiens, UniProt Q15759).
The target in experiment [8] is Maternal embryonic leucine zipper kinase (Homo sapiens, UniProt Q14680).
Experiment [9] addresses Proto-oncogene tyrosine-protein kinase Src (Homo sapiens, UniProt P12931).
Another experiment concerns the target T3, Scaffold protein ILK (Homo sapiens, UniProt Q13418).
T3 sequence (Q13418 whole entry): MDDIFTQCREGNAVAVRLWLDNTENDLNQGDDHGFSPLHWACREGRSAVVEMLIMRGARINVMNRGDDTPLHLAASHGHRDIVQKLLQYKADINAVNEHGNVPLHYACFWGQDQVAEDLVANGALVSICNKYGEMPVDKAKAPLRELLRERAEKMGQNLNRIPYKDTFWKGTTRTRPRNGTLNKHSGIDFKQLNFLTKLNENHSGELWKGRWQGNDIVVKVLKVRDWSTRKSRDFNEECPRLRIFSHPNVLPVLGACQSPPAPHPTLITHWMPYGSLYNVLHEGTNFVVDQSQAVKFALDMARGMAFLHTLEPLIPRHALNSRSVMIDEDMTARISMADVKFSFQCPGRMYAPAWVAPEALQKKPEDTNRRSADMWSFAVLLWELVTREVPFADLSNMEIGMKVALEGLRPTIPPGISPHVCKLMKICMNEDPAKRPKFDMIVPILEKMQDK

Active and inactive are the calls of the source. For most assays here, no stated cut-off is given here; in the data, actives have a measured Kd and inactives only a lower limit.

Chain of Maternal embryonic leucine zipper kinase (Q14680 whole entry): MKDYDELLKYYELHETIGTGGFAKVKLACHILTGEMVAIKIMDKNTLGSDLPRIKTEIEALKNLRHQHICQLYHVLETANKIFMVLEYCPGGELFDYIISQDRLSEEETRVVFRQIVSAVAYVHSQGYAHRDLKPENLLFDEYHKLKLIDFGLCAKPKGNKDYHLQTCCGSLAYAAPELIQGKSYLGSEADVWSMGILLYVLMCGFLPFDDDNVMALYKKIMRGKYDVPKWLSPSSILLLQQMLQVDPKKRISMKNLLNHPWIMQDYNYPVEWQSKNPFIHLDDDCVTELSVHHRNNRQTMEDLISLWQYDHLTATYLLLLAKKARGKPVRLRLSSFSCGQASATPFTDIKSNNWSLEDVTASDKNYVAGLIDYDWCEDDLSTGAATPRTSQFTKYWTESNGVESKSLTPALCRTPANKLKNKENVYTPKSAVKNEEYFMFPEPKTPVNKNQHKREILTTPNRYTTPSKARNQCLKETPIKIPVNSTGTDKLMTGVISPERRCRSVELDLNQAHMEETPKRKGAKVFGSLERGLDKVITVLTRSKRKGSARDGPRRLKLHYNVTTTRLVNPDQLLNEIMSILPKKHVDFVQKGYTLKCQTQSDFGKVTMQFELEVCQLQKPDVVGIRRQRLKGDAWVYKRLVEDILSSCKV
Chain of Chromodomain-helicase-DNA-binding protein 4 (Q14839 whole entry, canonical isoform): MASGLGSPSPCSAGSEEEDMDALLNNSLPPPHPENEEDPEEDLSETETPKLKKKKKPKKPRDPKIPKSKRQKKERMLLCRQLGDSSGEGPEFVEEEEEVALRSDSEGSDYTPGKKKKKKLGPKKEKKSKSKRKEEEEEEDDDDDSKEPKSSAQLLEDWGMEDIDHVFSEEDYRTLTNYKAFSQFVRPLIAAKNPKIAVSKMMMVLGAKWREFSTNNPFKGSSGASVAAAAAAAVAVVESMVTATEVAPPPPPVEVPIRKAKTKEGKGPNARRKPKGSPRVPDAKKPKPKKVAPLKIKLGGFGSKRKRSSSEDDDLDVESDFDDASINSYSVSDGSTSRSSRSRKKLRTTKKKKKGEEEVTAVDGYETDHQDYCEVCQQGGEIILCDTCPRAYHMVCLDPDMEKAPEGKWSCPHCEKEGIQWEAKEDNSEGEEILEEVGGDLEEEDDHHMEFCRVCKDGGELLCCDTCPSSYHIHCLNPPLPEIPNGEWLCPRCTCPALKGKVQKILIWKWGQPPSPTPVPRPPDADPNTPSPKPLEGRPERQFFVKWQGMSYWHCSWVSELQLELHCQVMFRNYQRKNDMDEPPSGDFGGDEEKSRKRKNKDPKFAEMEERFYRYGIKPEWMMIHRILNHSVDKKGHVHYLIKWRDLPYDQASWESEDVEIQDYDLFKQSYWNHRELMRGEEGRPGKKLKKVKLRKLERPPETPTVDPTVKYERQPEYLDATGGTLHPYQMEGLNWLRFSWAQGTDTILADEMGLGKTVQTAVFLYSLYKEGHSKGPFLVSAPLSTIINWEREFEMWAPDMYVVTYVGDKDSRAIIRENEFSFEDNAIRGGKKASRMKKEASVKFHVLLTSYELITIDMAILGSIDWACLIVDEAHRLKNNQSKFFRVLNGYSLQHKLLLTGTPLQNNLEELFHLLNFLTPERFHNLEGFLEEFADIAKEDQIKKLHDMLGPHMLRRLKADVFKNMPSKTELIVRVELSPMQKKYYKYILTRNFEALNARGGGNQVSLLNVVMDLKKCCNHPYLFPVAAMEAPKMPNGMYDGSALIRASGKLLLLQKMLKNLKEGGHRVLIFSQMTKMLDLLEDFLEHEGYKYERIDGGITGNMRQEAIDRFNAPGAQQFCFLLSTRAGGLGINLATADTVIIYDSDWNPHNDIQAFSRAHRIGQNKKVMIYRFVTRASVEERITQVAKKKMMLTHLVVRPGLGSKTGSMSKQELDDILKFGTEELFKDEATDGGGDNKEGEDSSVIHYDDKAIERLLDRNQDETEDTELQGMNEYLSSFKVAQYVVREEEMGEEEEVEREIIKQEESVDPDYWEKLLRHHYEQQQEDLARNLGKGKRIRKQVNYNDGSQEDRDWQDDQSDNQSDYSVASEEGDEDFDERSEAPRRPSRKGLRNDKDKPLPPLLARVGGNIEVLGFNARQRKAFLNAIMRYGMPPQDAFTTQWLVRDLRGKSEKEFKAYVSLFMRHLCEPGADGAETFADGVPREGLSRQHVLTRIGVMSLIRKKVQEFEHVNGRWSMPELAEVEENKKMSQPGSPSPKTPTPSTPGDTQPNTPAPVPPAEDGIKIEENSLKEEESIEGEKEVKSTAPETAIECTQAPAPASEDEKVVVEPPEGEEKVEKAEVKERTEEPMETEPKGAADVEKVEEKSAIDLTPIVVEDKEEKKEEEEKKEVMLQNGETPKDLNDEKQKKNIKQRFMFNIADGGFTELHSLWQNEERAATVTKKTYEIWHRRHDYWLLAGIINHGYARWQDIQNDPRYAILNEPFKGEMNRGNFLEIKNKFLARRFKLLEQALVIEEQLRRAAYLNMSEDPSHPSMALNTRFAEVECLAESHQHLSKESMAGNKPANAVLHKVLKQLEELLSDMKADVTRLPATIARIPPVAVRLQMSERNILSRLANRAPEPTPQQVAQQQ
Chain of Mitogen-activated protein kinase 11 (Q15759 whole entry): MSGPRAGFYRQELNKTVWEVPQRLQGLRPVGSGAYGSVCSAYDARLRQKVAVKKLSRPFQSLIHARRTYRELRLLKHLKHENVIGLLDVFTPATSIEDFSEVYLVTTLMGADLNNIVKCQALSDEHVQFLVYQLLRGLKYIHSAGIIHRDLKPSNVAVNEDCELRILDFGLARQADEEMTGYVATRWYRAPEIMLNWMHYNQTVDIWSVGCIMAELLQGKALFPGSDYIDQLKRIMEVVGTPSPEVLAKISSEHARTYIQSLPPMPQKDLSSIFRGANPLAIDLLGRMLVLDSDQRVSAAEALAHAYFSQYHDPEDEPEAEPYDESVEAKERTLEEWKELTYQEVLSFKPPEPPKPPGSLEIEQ
Chain of LIM domain kinase 2 (P53671 whole entry, the tested form may be a part): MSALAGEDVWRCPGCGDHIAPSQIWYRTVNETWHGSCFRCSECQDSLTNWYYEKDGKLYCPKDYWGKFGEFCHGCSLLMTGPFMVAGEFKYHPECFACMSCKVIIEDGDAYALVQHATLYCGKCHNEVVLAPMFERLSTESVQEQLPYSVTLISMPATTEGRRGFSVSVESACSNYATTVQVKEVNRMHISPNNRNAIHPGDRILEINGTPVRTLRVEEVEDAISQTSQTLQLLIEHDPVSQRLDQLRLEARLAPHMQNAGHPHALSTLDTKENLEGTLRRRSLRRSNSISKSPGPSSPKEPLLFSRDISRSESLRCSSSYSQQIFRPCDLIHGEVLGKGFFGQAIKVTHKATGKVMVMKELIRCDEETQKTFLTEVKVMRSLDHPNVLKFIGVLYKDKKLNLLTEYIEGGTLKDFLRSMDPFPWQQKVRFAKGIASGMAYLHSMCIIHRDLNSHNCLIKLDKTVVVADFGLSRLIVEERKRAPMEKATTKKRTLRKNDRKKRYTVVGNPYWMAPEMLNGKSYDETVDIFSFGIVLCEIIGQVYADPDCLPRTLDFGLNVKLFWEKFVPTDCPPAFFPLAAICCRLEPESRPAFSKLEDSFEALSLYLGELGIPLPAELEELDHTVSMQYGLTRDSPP
Chain of Cyclin-dependent kinase 13 (Q14004 whole entry): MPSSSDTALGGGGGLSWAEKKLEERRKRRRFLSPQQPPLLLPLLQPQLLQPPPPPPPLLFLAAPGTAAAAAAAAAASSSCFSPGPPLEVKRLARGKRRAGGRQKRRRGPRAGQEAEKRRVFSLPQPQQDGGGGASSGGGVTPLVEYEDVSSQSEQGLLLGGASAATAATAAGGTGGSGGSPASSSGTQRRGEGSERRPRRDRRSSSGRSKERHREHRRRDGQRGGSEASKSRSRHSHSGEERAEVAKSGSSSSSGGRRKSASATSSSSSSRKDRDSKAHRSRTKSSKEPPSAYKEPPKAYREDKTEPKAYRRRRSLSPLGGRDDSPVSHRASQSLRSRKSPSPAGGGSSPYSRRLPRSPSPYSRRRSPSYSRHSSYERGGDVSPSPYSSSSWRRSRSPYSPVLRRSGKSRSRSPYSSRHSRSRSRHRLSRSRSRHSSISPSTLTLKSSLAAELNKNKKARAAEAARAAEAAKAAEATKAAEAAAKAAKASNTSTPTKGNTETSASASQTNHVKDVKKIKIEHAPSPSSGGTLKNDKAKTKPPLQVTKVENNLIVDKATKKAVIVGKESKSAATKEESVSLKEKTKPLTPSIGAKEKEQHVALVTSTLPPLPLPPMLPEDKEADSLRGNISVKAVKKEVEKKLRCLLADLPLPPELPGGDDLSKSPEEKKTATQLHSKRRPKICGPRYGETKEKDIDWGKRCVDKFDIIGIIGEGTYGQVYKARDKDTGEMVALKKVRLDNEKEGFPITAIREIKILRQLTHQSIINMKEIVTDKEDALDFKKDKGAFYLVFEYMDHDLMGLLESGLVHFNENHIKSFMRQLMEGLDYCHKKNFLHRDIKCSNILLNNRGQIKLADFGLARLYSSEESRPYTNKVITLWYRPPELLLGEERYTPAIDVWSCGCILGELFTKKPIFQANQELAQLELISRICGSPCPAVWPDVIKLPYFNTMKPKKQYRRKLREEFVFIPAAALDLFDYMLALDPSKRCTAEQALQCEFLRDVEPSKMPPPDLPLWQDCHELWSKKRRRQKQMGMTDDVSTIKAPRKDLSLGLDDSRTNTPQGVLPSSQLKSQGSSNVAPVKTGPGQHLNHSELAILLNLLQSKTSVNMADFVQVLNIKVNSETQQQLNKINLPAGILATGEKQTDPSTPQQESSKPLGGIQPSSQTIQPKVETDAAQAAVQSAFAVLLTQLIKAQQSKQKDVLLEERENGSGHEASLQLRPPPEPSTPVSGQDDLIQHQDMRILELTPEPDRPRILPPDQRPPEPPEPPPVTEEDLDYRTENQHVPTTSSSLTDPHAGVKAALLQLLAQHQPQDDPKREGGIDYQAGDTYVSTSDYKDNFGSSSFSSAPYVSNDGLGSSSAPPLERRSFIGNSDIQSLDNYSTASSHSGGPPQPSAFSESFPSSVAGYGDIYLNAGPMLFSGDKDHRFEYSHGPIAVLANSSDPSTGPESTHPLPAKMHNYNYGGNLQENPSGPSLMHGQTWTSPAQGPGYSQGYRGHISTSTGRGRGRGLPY

On to `O[C@H]1CC[C@H](Nc2ncc3nc(Nc4c(F)cc(F)cc4F)n([C@H]4CCOC4)c3n2)CC1` [TANZISERTIB], for which the Kd in [1] was > 30 µM (inactive); in experiment [2], > 30 µM (inactive); in experiment [3] it was > 30 µM (inactive); in experiment [4], > 30 µM (inactive); at LIM domain kinase 2 it was 1.84 µM (active); in experiment [5] it was > 30 µM (inactive). Moreover, the Kd (in experiment [6]; in [7]; in experiment [8]; in experiment [9]; on Activated CDC42 kinase 1) was > 30 µM (inactive) in each case.
As for `NC(=O)c1ccc(N(C(N)=O)c2c(F)cccc2F)nc1-c1ccc(F)cc1F` [VX-702], the Kd (in experiment [1]; in experiment [2]; in experiment [4]; on Scaffold protein ILK; at LIM domain kinase 2; in [5]) was > 30 µM (inactive) each time. Further, the Kd (in experiment [6]; in experiment [8]; on Myosin-14; in experiment [9]; at Activated CDC42 kinase 1) was > 30 µM (inactive) in each case.
With `C=CCN(/C=C1/C(=O)O[C@H](COC)[C@@]2(C)C1=C(O)C(=O)C1=C2[C@H](OC(C)=O)C[C@]2(C)C(=O)CC[C@@H]12)CC=C` [SONOLISIB], the Kd (in [1]; in experiment [2]; in experiment [4]; at Scaffold protein ILK; at LIM domain kinase 2; in experiment [5]) was > 30 µM (inactive) in each case. Moreover, the Kd (in [6]; in [7]; in experiment [8]; in experiment [9]; at Activated CDC42 kinase 1) was > 30 µM (inactive) in each case.
With `COCCN1CCN(Cc2ccc(-c3n[nH]c4c3C(=O)c3c(NC(=O)NN5CCOCC5)cccc3-4)cc2)CC1` [RGB-286638], the Kd in [1] was > 30 µM (inactive); in experiment [2], 1.01 µM (active); in experiment [3] it was > 30 µM (inactive); in experiment [4], 8.07 µM (active); at Scaffold protein ILK, > 30 µM (inactive); on LIM domain kinase 2, > 30 µM (inactive). Moreover, the Kd was > 30 µM (inactive) in experiment [5]; > 30 µM (inactive) in [6]; > 30 µM (inactive) in experiment [7]; 1.46 µM (active) in experiment [8]; > 30 µM (inactive) in experiment [9]; > 30 µM (inactive) on Activated CDC42 kinase 1.
Consider `FC(F)(F)c1ccc(CNc2ccc(Cc3c[nH]c4ncc(Cl)cc34)cn2)cn1` [PEXIDARTINIB], for which the Kd (in [1]; in experiment [2]; in [3]; in [4]; on Scaffold protein ILK; on LIM domain kinase 2) was > 30 µM (inactive) throughout. Besides, the Kd (in experiment [5]; in [6]; in experiment [7]; in experiment [8]; in experiment [9]; on Activated CDC42 kinase 1) was > 30 µM (inactive) in each case.
Consider `C=CCn1c(=O)c2cnc(Nc3ccc(N4CCN(C)CC4)cc3)nc2n1-c1cccc(C(C)(C)O)n1` [ADAVOSERTIB], for which the Kd (in experiment [1]; in experiment [2]; in experiment [3]; on Scaffold protein ILK; at LIM domain kinase 2; in experiment [5]) was > 30 µM (inactive) each time. For the same molecule, the Kd (in [6]; in experiment [7]; in experiment [8]; at Myosin-14; in [9]) was > 30 µM (inactive) in each case.
Turning to `CCOc1ccn(-c2ccc(F)cc2)c(=O)c1C(=O)Nc1ccc(Oc2ccnc(N)c2Cl)c(F)c1` [BMS-777607], the Kd (in experiment [1]; in experiment [2]; in experiment [3]; in experiment [4]; on LIM domain kinase 2; in experiment [5]) was > 30 µM (inactive) throughout. In addition, the Kd (in experiment [6]; in [7]; in experiment [8]; in [9]; at Activated CDC42 kinase 1) was > 30 µM (inactive) throughout.
Turning to `C=CC(=O)Nc1cccc(Nc2nc(Nc3ccc(N4CCN(C(C)=O)CC4)cc3OC)ncc2C(F)(F)F)c1` [ROCILETINIB], the Kd (in experiment [1]; in experiment [2]; in experiment [3]; in experiment [4]; at LIM domain kinase 2; in experiment [5]) was > 30 µM (inactive) throughout. Moreover, the Kd (in [6]; in [8]; at Myosin-14; in experiment [9]; at Activated CDC42 kinase 1) was > 30 µM (inactive) each time.
For the molecule `CNC(=O)c1cc(COc2nnc(Nc3ccc(Cl)cc3)c3ccoc23)ccn1` [TELATINIB], the Kd was > 30 µM (inactive) in [1]; > 30 µM (inactive) in experiment [2]; > 30 µM (inactive) in experiment [3]; > 30 µM (inactive) in [4]; 0.032 µM at Scaffold protein ILK; > 30 µM (inactive) on LIM domain kinase 2. The Kd (in [5]; in [6]; in experiment [7]; in experiment [8]; in [9]; on Activated CDC42 kinase 1) was > 30 µM (inactive) throughout.

Usually Kd stands for the constant that tells how readily two partners part at equilibrium.

These data come from ChEMBL document CHEMBL3991601, “The target landscape of clinical kinase drugs” (Science, 2017).
